The values below come from patent publication US7468391B2, “Methods for treating retinoid responsive disorders using selective inhibitors of CYP26A and CYP26B” (Allergan, Inc., priority 2003, dated 2008).

The target in one assay is T1, CYP26B (P450RAI-2) (Homo sapiens, UniProt Q9NR63).
T1 construct: expressed in transfected cells; host or cells: HeLa
T1 sequence (Q9NR63 1-512): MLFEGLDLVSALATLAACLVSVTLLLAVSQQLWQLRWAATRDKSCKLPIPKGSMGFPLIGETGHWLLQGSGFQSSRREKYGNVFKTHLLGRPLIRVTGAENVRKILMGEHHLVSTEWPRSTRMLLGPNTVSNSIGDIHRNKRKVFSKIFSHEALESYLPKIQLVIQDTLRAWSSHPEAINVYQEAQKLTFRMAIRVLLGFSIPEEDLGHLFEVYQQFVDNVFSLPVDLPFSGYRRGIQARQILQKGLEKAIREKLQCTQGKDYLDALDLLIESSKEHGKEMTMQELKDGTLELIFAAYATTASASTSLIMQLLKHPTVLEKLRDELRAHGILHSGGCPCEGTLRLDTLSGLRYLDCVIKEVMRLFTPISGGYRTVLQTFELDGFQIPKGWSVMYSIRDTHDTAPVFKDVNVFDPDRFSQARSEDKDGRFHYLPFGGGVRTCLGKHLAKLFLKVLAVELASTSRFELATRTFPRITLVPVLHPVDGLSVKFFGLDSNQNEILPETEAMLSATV
The assay is described as follows: Cell-based inhibition of RA metabolism in CYP26B stably transfected HeLa cells. The following applies: stably transfected HeLa cells, [3H]-RA, 3 hours at 37° C.; read-out: P450RAI-2 Whole cell IC50. The protocol: (§1) In brief, CYP26A or CYP26B can be stably transfected into HeLa cells. Exponentially growing cells are harvested by incubating in trypsin. Cells are then washed and plated in a 48-well plate at 5×10^5 cells in 0.2 ml MEM medium containing 10% FBS and 0.05 μCi [^3H]-RA in the presence or absence of increasing concentrations of the test compounds. The compounds are diluted in 100% DMSO and then added in triplicate wells at either 10, 1 or 0.1 μM final concentration. As a positive control for RA metabolism inhibition, cells are also incubated with ketoconazole at 100, 10 and 1 μM. Cells are incubated for 3 hours at 37 degrees C. The retinoids are then extracted using the procedure of Bligh et al., Canadian Journal of Biochemistry 37: 911-917 (1959), modified by using methylenechloride instead of chloroform. This publication by Bligh et al., is specifically incorporated herein by reference. The water soluble radioactivity is quantified using a β scintillation counter, and IC50 values are determined.
(§2) CYP26A and CYP26B stably transfected HeLa cells were maintained in 100 mm tissue culture dishes in MEM medium containing 10% FBS and 100 μg/ml hygromycin.
(§3) Exponentially growing cells were harvested by incubating in trypsin. Cells were then washed with 1×PBS and plated in a 48-well plate at 5×10^5 cells in 0.2 ml MEM medium containing 10% FBS and 0.05 μCi [^3H]-RA in the presence or absence of increasing concentrations of the test compounds. The compounds were diluted in 100% DMSO and then added to triplicate wells at final concentrations of 10, 1 or 0.1 μM. As a positive control for RA metabolism inhibition, cells were also incubated with ketoconazole at 100, 10 and 1 μM. Cells were incubated for 3 hours at 37° C. The retinoids were then extracted using a modified Bligh and Dyer procedure (Bligh and Dyer, supra (1959)), in which methylene-chloride, as opposed to chloroform, was used, and the aqueous soluble radioactivity quantified using a β-scintillation counter. ID50 values represent the concentration of inhibitor required to inhibit RA metabolism by 50 percent and were derived manually from log-transformed data.

The target of assay [1] is T2, RAR β (Homo sapiens, UniProt P10826).
T2 sequence (P10826 1-455): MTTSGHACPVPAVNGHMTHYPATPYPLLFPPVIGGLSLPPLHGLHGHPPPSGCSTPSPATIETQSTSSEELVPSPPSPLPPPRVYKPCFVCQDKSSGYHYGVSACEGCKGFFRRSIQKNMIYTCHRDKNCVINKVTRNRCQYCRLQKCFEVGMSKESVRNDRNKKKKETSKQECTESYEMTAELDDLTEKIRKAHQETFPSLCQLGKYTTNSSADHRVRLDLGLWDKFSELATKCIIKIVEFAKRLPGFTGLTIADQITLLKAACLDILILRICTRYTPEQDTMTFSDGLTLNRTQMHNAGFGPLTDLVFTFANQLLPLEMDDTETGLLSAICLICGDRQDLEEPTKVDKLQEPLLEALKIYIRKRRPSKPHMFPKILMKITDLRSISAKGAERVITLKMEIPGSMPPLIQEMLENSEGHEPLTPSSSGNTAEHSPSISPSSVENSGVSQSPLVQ
The assay is described as follows: RAR β EC50/(efficacy). The class given is cell-based. The following applies: value in brackets of cell EC50/(EFFICACY)/Kd.

The next assay has as its target T3, RAR γ (Homo sapiens, UniProt P13631).
T3 sequence (P13631 1-454): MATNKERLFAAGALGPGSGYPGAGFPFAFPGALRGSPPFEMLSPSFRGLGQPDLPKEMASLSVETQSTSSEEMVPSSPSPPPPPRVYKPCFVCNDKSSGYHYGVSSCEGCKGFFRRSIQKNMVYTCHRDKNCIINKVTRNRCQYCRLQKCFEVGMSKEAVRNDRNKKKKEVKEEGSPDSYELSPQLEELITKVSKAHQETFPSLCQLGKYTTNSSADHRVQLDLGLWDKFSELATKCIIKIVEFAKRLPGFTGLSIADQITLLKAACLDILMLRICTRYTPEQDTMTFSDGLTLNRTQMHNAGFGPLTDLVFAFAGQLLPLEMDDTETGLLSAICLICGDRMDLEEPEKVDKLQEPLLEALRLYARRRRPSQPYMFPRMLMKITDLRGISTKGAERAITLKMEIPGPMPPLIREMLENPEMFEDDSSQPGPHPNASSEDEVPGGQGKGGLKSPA
The assay is described as follows: RAR γ Kd. The class given is binding. The following applies: last item of cell EC50/(EFFICACY)/Kd.

In the next assay the target is T4, RAR α (Homo sapiens, UniProt P10276).
T4 sequence (P10276 1-462): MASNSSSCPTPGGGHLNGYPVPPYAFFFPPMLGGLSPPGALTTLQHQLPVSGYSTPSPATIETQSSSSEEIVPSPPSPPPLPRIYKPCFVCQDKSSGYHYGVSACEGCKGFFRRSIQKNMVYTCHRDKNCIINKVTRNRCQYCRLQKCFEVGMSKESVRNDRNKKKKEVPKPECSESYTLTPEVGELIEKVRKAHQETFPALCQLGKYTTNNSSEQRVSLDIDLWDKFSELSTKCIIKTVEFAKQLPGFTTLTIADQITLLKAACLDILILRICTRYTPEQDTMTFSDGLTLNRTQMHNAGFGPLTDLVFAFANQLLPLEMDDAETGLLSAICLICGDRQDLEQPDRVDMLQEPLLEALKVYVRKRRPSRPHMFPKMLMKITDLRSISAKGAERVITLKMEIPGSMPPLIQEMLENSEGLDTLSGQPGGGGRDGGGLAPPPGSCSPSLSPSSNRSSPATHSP
The assay is described as follows: RAR α Kd. The note with it: last item of cell EC50/(EFFICACY)/Kd. The class given is binding.

In assay [2] the target is T2, RAR β. The assay is described as follows: RAR β Kd. The class given is binding. The following applies: last item of cell EC50/(EFFICACY)/Kd.
The next assay concerns the target T5, CYP26A (P450RAI-1) (Homo sapiens, UniProt O43174).
T5 construct: expressed in transfected cells; host or cells: HeLa
T5 sequence (O43174 1-497): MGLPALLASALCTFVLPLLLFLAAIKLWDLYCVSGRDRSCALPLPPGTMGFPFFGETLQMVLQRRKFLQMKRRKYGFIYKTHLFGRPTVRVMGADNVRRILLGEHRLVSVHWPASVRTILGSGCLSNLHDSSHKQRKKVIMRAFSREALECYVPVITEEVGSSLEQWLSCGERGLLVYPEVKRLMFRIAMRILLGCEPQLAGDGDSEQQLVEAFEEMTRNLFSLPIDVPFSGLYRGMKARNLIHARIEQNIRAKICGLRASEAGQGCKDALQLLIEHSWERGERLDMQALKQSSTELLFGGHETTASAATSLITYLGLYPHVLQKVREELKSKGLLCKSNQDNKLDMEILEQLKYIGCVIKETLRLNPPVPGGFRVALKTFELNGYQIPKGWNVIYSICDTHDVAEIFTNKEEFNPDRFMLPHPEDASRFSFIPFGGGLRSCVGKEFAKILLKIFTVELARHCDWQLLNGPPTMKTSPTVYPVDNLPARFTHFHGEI
The assay is described as follows: Cell-based inhibition of RA metabolism in CYP26A stably transfected HeLa cells. The following applies: stably transfected HeLa cells, [3H]-RA, 3 hours at 37° C.; read-out: P450RAI-1 Whole cell IC50. The method, then: as §1, §2, §3

Structures are written as SMILES.

`CC(C(=O)O)c1ccc(C#Cc2cc(CN(C)C3CC3)c3c(c2)C(C)(C)CC(C)(C)O3)cc1` (stereo not shown) [Compound 8, 2-(4-{8-[(Cyclopropyl-methyl-amino)-methyl]-2,2,4,4-tetramethyl-chroman-6-ylethynyl}-phenyl)-propionic acid]: the IC50 at CYP26B (P450RAI-2) was over 10 µM; at CYP26A (P450RAI-1), 0.05 µM. Moreover, at RAR β [1], the “RAR β (EFFICACY)” value worked out at 15. The Kd at RAR γ was over 10 µM; at RAR α it was 0.957 µM; at RAR β [2], 4.8 µM.

Regarding `CCOC(=O)C1=CCC(C)(C)c2cc(C#Cc3ccc(CC(=O)O)c(F)c3)c(C)cc21` [Compound 56, 6-(4-Carboxymethyl-3-fluoro-phenylethynyl)-4,4,7-trimethyl-3,4-dihydro-naphthalene-1-carboxylic acid ethyl ester], the “RAR β (EFFICACY)” value on RAR β [1] was 30. In addition, the Kd at RAR γ, on RAR α and on RAR β [2] was over 10 µM each time. Besides, the 50% inhibitory concentration (IC50) at CYP26A (P450RAI-1) turned out to be 0.5 µM.

Take `CC(C(=O)O)c1ccc(C#Cc2cc(C3CC3)c3c(c2)C(C)(C)CC2(CC2)O3)cc1` (stereo not shown) [Compound 1, 2-{4-[(8-Cyclopropyl-3,4-dihydro-4,4-dimethylspiro[2H-1-benzopyran-2,1′-cyclopropane]-6-yl)ethynyl]-phenyl}-propionic acid]: the concentration for half-maximal inhibition (IC50) on CYP26B (P450RAI-2) came out at 8 µM; on CYP26A (P450RAI-1), 0.009 µM. Further, the equilibrium dissociation constant (Kd) on RAR γ was 3.49 µM; at RAR α it was 2.09 µM; on RAR β [2], 3.02 µM.

As for `CC1(C)CC(C)(C)c2cc(C#Cc3ccc(C(C)(C)C(=O)O)cc3)cc(O)c2O1` [Compound 12, 2-[4-(8-Hydroxy-2,2,4,4-tetramethyl-chroman-6-ylethynyl)-phenyl]-2-methyl-propionic acid], the IC50 at CYP26B (P450RAI-2) is over 10 µM; on CYP26A (P450RAI-1), 0.16 µM. Further, the Kd on RAR γ, at RAR α and at RAR β [2] was over 10 µM each time.

Turning to `CN(C1CC1)C1CCC(C)(C)c2cc(NC(=O)Nc3ccc(C(=O)O)cc3)ccc21` (stereo not shown) [Compound 21, 4-{3-[5-(Cyclopropyl-methyl-amino)-8,8-dimethyl-5,6,7,8-tetrahydro-naphthalen-2-yl]-ureido}-benzoic acid], the results for the IC50 at CYP26B (P450RAI-2) and at CYP26A (P450RAI-1) were 0.7 µM and over 10 µM, respectively. The Kd at RAR γ, on RAR α and at RAR β [2] was over 10 µM throughout.

As to `CC(C)Oc1cc(C#Cc2ccc(CC(=O)O)cc2)cc2c1OC(C)(C)CC2(C)C` [Compound 13, [4-(8-Isopropoxy-2,2,4,4-tetramethyl-chroman-6-ylethynyl)-phenyl]-acetic acid], the IC50 is 8 µM on CYP26B (P450RAI-2) and 0.06 µM at CYP26A (P450RAI-1). Further, the values for the Kd at RAR γ, at RAR α and on RAR β [2] were over 10 µM, 0.397 µM and over 10 µM, respectively.

On to `CN(C1CC1)C1CCC(C)(C)c2cc(C#Cc3ccc(C(C)(C)C(=O)O)cc3)cc(C3CC3)c21` (stereo not shown) [Compound 50, 2-{4-[4-Cyclopropyl-5-(cyclopropyl-methyl-amino)-8,8-dimethyl-5,6,7,8-tetrahydro-naphthalen-2-ylethynyl]-phenyl}-2-methyl-propionic acid], for which the IC50 at CYP26B (P450RAI-2) is over 10 µM; on CYP26A (P450RAI-1) it was 0.1 µM. The Kd on RAR γ, on RAR α and at RAR β [2] was over 10 µM each time.

For `C#Cc1cc(C#Cc2ccc(CC(=O)OCOC(C)=O)c(F)c2)cc(C(=O)OC(C)C)c1` [Compound 62, 3-(4-Acetoxymethoxycarbonylmethyl-3-fluoro-phenylethynyl)-5-ethynyl-benzoic acid isopropyl ester], the IC50 on CYP26B (P450RAI-2) was determined as 6.1 µM; at CYP26A (P450RAI-1) it was 0.4 µM. Further, the Kd on RAR γ, on RAR α and on RAR β [2] was over 10 µM in each case.

Turning to `COc1cc(C#Cc2ccc(/C=C/C(=O)O)cc2)cc2c1C(N(C)C1CC1)CCC2(C)C` (stereo not shown) [Compound 29, (E)-3-{4-[5-(Cyclopropyl-methyl-amino)-4-methoxy-8,8-dimethyl-5,6,7,8-tetrahydro-naphthalen-2-ylethynyl]-phenyl}-acrylic acid], the IC50 at CYP26B (P450RAI-2) was over 10 µM; at CYP26A (P450RAI-1) it was 0.6 µM. The Kd at RAR γ, on RAR α and at RAR β [2] was over 10 µM each time.

The IC50 is the concentration needed to halve the response being measured. As a reminder, the Kd is the equilibrium constant for the complex coming apart. Higher therefore signals weaker binding.
